Assay results from publication PMC5698418 (Nature Communications, 2017).

Tests used:
[1] = test system: Arc protein in dentate gyrus; test: Arc immunohistochemistry in dentate gyrus after intraperitoneal injection; assay type: in vivo, mouse; settings: 30 mg kg−1 i.p., 3 h
Description: Male mice (C57BL/6 strain) were received as 6-weeks old and habituated to their home cage as trios for 2 weeks before conducting the experiments. During the habituation time period, mice were kept on a light–dark cycle with minimal disruption and unrestricted access to food and water. On experiment day, mice from the same cage were taken and randomly subjected to intraperitoneal injection of vehicle (25% Kolliphor EL (Sigma-Aldrich, C5135), 10% DMSO) or AK-7 (30 mg kg^−1) solution and immediately placed back in their home cage or transferred to a novel environment. The novel environment consisted of a large cage placed in a different room with new bedding, food, as well as multiple objects like tunnel, running wheel, igloo, and aspen labyrinth that the mice could freely explore. About 3 h after the injection procedure, mice were rapidly anesthetized and killed by decapitation. Finally, brain tissues were harvested and flash frozen in a dry ice/isopentane bath and stored at −80 °C. All experiments were approved by the Animal Care and Use Committee of the Massachusetts General Hospital and carried out according to institutional guidelines.
Coronal sections containing the hippocampus from all animals were cut from the frozen blocks at a thickness of 20 µm with a CM3050 cryostat (Leica, Nussloch, Germany). […]
The following approach was adopted to quantify the number of Arc-positive cell bodies and average acetyl-H3K9 immunostaining pixel intensity in dentate gyrus. First, complete dentate gyrus overlapping grayscale images of DAPI fluorescence and Arc or acetyl-H3K9 immunostaining were collected using a ×20 objective and Nikon Eclipse 90i upright microscope equipped with a motorized stage and image stitching capability. Second, the boundary of the dentate gyrus based on the DAPI fluorescence was determined in each image set with the ImageJ wand tool. Finally, this information was used for image segmentation and quantification of Arc-positive cell bodies or average acetyl-H3K9 immunostaining pixel intensity within each dentate gyrus images. […]

[2] = test system: Arc puncta in dendrites of primary cortical neurons; test: Arc puncta along Map2-labeled dendrites (immunocytochemistry); assay type: cell-based, mouse; settings: 16.7 µM with BDNF, vs untreated and BDNF alone; for BDNF: BDNF alone vs untreated
Text: Chemical structure of each compound is presented on top. b Graphs show mean (n = 5) Arc/β-actin ratio (±SEM) for cells treated as in a. […] Tukey’s HSD post hoc test, *p < 0.05; **p < 0.01, ***p < 0.005; ****p < 0.0001. […] Representative captures of DIV14 mouse primary cortical neurons from each experimental condition co-immunostained for Arc (red fluorophore) and Map2 (green fluorophore). White arrowheads show examples of discrete Arc puncta. […] Tukey’s HSD post hoc test, *p < 0.05; ***p < 0.005; ****p < 0.0001
Indirect immunofluorescence detection of antigens was carried out using cortical neurons cultured on poly-L-lysine/laminin-coated coverslips in 24-well plates at a density of 0.1 × 10^7 per well. After experimental treatment, cells were washed twice with PBS and fixed for 30 min at room temperature with 4% paraformaldehyde in PBS. After fixation, cells were washed twice with PBS, permeabilized with PBST (PBS + 0.25% Triton X-100) for 20 min, blocked in blocking solution (PBS + 5% normal goat serum) for another 30 min, and finally incubated overnight at 4 °C with the first primary antibody in blocking solution. The next day, coverslips were extensively washed with PBS and incubated for 2 h at room temperature in the appropriate fluorophore-conjugated secondary antibody solution (Alexa 488- or Alexa 594-conjugated secondary antibody (Molecular Probes, Invitrogen) in blocking solution). After washing with PBS, the coverslips were incubated again overnight in primary antibody solution for the second antigen, and the procedure for conjugation of the fluorophore-conjugated secondary antibody was repeated as above. Finally, cell nuclei were counterstained with 4′,6-diamidino-2-phenylindole (DAPI), and coverslips were mounted on glass slides with ProLong Antifade reagent (Invitrogen).
(§1) Quantification of surface GluA1 puncta was performed according to the following strategy. First, overlapping digital images of GluA1 and Map2 immunostainings were collected using a Zeiss AxioObserver Z1 inverted microscope and ×63 oil immersion objective. Second, thresholding and segmentation based on the Map2 images was used to remove GluA1 signals outside of dendritic processes. Importantly, the same background/foreground cutoff threshold was used for images of all experimental conditions. Third, the length of dendrites for each image set was measured and recorded. Finally, distinct GluA1 foreground objects along dendrites >5 pixels were counted using the particle analysis tool in ImageJ and presented as the average number of GluA1 puncta per µm of dendrite length for each experimental condition.

Arc protein = test: Western blot of total Arc protein in primary cortical neurons; assay type: cell-based, mouse; settings: BDNF 6 h supplemented with compound
surface GluA1 = test: Surface AMPAR (GluA1) imaging along dendrites; assay type: cell-based, mouse; settings: 16.7 µM, 6 h with BDNF, vs untreated and BDNF alone; for BDNF: BDNF alone vs baseline
Description: Our procedure to label surface AMPARs containing the GluA1 subunit was adapted from two reports[14],[61]. Precisely, DIV14 primary cortical neurons cultured on coverslips were rinsed once with room temperature PBS^MC (PBS containing 0.5 mM CaCl2, 1 mM MgCl2, and 4% sucrose). Live cells were then incubated for 30 min at room temperature with GluA1 primary antibody solution (PBS^MC with antibody against the extracellular N-terminus of GluA1 (EMD Millipore Corp, clone RH95, 5.0 µg ml^−1)). Next, cells were rinsed twice with ice-cold PBS^MC followed by fixation with 4% paraformaldehyde + 4% sucrose solution for 15 min at room temperature. After fixation, neurons were washed with regular PBS and then incubated overnight with Map2 primary antibody solution (PBS with 0.125% Triton X-100, 5% normal goat serum, and anti-Map2 antibody) to label dendrites. Next day, coverslips were washed with PBS, incubated with appropriate secondary antibodies for 1 h at room temperature, and finally mounted on glass slides with ProLong Antifade reagent (Invitrogen).
as §1

Structure (SMILES): O=C(Nc1cccc(Br)c1)c1cccc(S(=O)(=O)N2CCCCCC2)c1 [AK-7]
- Arc immunofluorescence signal intensity in cell bodies vs vehicle ([1]; home cage): not statistically different
- number of neurons with prominent Arc immunostaining in dentate gyrus vs vehicle ([1]; home cage): more than eight times
- number of Arc immunopositive cell bodies in dentate gyrus vs vehicle ([1]; novel environment): did not led to more Arc immunopositive cell bodies
- number of Arc puncta in dendritic projections [2]: significantly greater number of Arc puncta
- total Arc protein vs BDNF plus vehicle control (western blot, Arc/β-actin) (Arc protein): significantly more Arc protein
- surface GluA1 puncta per dendrite µm (surface GluA1): significant decrease in surface GluA1 levels
